target: T1, Full-length, GST-tagged, human CaMKIIδ (Homo sapiens, UniProt Q13557); experiment: CaMKIIδ binding assay (TR-FRET with BODIPY-labeled probe ligand); conditions: Table 2; CaMKIIδ binding assay, activity given as class A/B/C
T1 construct: Full-Length, Glutathione-S-Transferase(GST)-Tagged, Human CaMKIIδ was purchased from Carna Biosciences; purchased Carna Biosciences 02-111
Summary of the method: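 TR-FRET probe-displacement binding: 0.5 nM GST-CaMKIIδ with 10 μg/mL calmodulin, 1 mM CaCl2, 0.21 nM Tb-anti-GST Ab and 300 nM BODIPY probe in HEPES pH 7.6 buffer. Eight-point 4-fold dilutions, 1 hr at room temperature. IC50 from logistic fit; 100% inhibition defined by 3 μM parent compound.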

T1 sequence (Q13557 1-478 isoform Q13557-12): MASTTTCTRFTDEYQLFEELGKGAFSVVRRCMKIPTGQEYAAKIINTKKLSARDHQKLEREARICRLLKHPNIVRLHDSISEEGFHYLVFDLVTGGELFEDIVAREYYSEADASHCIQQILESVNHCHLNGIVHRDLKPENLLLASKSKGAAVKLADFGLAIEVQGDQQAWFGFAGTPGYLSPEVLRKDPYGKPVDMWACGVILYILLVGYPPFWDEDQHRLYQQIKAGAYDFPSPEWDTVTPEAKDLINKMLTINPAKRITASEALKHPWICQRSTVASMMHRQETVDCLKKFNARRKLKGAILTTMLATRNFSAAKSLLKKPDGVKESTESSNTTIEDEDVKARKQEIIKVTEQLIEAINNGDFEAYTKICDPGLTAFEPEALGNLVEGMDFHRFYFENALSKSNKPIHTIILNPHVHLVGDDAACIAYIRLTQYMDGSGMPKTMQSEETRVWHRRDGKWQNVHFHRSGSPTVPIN

`C[C@@H](Cn1cnnn1)Oc1cc(-c2cnc(Nc3cn([C@H]4CC[C@@H](N5CCC5)CC4)nc3C(F)(F)F)nc2)ccc1Cl` [Example 778, 5-(3-(((S)-1-(1H-tetrazol-1-yl)propan-2-yl)oxy)-4-chlorophenyl)-N-(1-(cis-4-(azetidin-1-yl)cyclohexyl)-3-(trifluoromethyl)-1H-pyrazol-4-yl)pyrimidin-2-amine] and `C[C@@H](Cn1cnnn1)Oc1cc(-c2cnc(Nc3cn([C@H]4CC[C@H](N5CCC5)CC4)nc3C(F)(F)F)nc2)ccc1Cl` [Example 779, 5-(3-(((S)-1-(1H-tetrazol-1-yl)propan-2-yl)oxy)-4-chlorophenyl)-N-(1-(trans-4-(azetidin-1-yl)cyclohexyl)-3-(trifluoromethyl)-1H-pyrazol-4-yl)pyrimidin-2-amine] cannot be ordered by IC50: less than 0.01 µM for the first, less than 0.01 µM for the second.

`C[C@@H](Cn1cnnn1)Oc1cc(-c2cnc(Nc3cn([C@H]4CC[C@@H](N5CCOCC5)CC4)nc3OCC(F)(F)F)nc2)ccc1Cl` [Example 780, 5-(3-(((S)-1-(1H-tetrazol-1-yl)propan-2-yl)oxy)-4-chlorophenyl)-N-(1-(cis-4-morpholinocyclohexyl)-3-(2,2,2-trifluoroethoxy)-1H-pyrazol-4-yl)pyrimidin-2-amine] and `C[C@@H](Cn1cnnn1)Oc1cc(-c2cnc(Nc3cn([C@H]4CC[C@@H](N5CCOCC5)CC4)nc3C(F)(F)F)nc2)ccc1Cl` [Example 781, 5-(3-(((S)-1-(1H-tetrazol-1-yl)propan-2-yl)oxy)-4-chlorophenyl)-N-(1-(cis-4-morpholinocyclohexyl)-3-(trifluoromethyl)-1H-pyrazol-4-yl)pyrimidin-2-amine] cannot be ordered by IC50: less than 0.01 µM for the first, less than 0.01 µM for the second.

First: C[C@@H](Cn1cccn1)Oc1cc(-c2cnc(Nc3cn(C4CCN(C5CCOCC5)CC4)nc3OCC(F)(F)F)nc2)ccc1C#N [Example 782, (S)-2-((1-(1H-pyrazol-1-yl)propan-2-yl)oxy)-4-(2-((1-(1-(tetrahydro-2H-pyran-4-yl)piperidin-4-yl)-3-(2,2,2-trifluoroethoxy)-1H-pyrazol-4-yl)amino)pyrimidin-5-yl)benzonitrile]
Second: C[C@@H](Cn1cccn1)Oc1cc(-c2cnc(Nc3cn([C@H]4CC[C@@H](N5CCOCC5)CC4)nc3OCC(F)(F)F)nc2)ccc1C#N [Example 797, 2-(((S)-1-(1H-pyrazol-1-yl)propan-2-yl)oxy)-4-(2-((1-(cis-4-morpholinocyclohexyl)-3-(2,2,2-trifluoroethoxy)-1H-pyrazol-4-yl)amino)pyrimidin-5-yl)benzonitrile]
The IC50 of the first is lower: less than 0.01 µM for the first, 0.01 to 0.1 µM for the second.

`C[C@@H](Cn1cnnn1)Oc1cc(-c2cnc(Nc3cn(CCCCO)nc3OCC(F)(F)F)nc2)ccc1Cl` [Example 783, (S)-4-(4-((5-(3-((1-(1H-tetrazol-1-yl)propan-2-yl)oxy)-4-chlorophenyl)pyrimidin-2-yl)amino)-3-(2,2,2-trifluoroethoxy)-1H-pyrazol-1-yl)butan-1-ol] and `C[C@@H](CO)Cn1cc(Nc2ncc(-c3ccc(Cl)c(O[C@@H](C)Cn4cnnn4)c3)cn2)c(OCC(F)(F)F)n1` [Example 784, (R)-3-(4-((5-(3-(((S)-1-(1H-tetrazol-1-yl)propan-2-yl)oxy)-4-chlorophenyl)pyrimidin-2-yl)amino)-3-(2,2,2-trifluoroethoxy)-1H-pyrazol-1-yl)-2-methylpropan-1-ol] cannot be ordered by IC50: less than 0.01 µM for the first, less than 0.01 µM for the second.

`C[C@@H](Cn1cccn1)Oc1cc(-c2cnc(Nc3cn([C@H]4CC[C@@H](N5CCOCC5)CC4)nc3C(F)(F)F)nc2)ccc1C#N` [Example 785, 2-(((S)-1-(1H-pyrazol-1-yl)propan-2-yl)oxy)-4-(2-((1-(cis-4-morpholinocyclohexyl)-3-(trifluoromethyl)-1H-pyrazol-4-yl)amino)pyrimidin-5-yl)benzonitrile] and `C[C@@H](Cn1cccn1)Oc1cc(-c2cnc(Nc3cn([C@H]4CC[C@H](N5CCOCC5)CC4)nc3C(F)(F)F)nc2)ccc1C#N` [Example 786, 2-(((S)-1-(1H-pyrazol-1-yl)propan-2-yl)oxy)-4-(2-((1-(trans-4-morpholinocyclohexyl)-3-(trifluoromethyl)-1H-pyrazol-4-yl)amino)pyrimidin-5-yl)benzonitrile] fall in the same range of IC50: 0.01 to 0.1 µM for the first, 0.01 to 0.1 µM for the second.

`C[C@H](CO)n1cc(Nc2ncc(-c3ccc(Cl)c(O[C@@H](C)Cn4cnnn4)c3)cn2)c(OCC(F)(F)F)n1` [Example 787, (R)-2-(4-((5-(3-(((S)-1-(1H-tetrazol-1-yl)propan-2-yl)oxy)-4-chlorophenyl)pyrimidin-2-yl)amino)-3-(2,2,2-trifluoroethoxy)-1H-pyrazol-1-yl)propan-1-ol] and `COC[C@@H](C)n1cc(Nc2ncc(-c3ccc(Cl)c(O[C@@H](C)Cn4cnnn4)c3)cn2)c(OCC(F)(F)F)n1` [Example 796, 5-(3-(((S)-1-(1H-tetrazol-1-yl)propan-2-yl)oxy)-4-chlorophenyl)-N-(1-((R)-1-methoxypropan-2-yl)-3-(2,2,2-trifluoroethoxy)-1H-pyrazol-4-yl)pyrimidin-2-amine] cannot be ordered by IC50: less than 0.01 µM for the first, less than 0.01 µM for the second.

`Cc1ccc(-c2cnc(Nc3cn(C4CCN(C5CCOCC5)CC4)nc3OCC(F)(F)F)nc2)cc1O[C@@H](C)Cn1cnnn1` [Example 788, (S)-5-(3-((1-(1H-tetrazol-1-yl)propan-2-yl)oxy)-4-methylphenyl)-N-(1-(1-(tetrahydro-2H-pyran-4-yl)piperidin-4-yl)-3-(2,2,2-trifluoroethoxy)-1H-pyrazol-4-yl)pyrimidin-2-amine] and `C[C@@H](Cn1cnnn1)Oc1cc(-c2cnc(Nc3cn(C4CCN(C5CCOCC5)CC4)nc3OCC(F)(F)F)nc2)ccc1F` [Example 789, (S)-5-(3-((1-(1H-tetrazol-1-yl)propan-2-yl)oxy)-4-fluorophenyl)-N-(1-(1-(tetrahydro-2H-pyran-4-yl)piperidin-4-yl)-3-(2,2,2-trifluoroethoxy)-1H-pyrazol-4-yl)pyrimidin-2-amine] cannot be ordered by IC50: less than 0.01 µM for the first, less than 0.01 µM for the second.

`C[C@@H](Cn1cnnn1)Oc1cc(-c2cnc(Nc3cn(C4CCN(C5CCOCC5)CC4)nc3OCC(F)(F)F)nc2)ccc1C#N` [Example 790, (S)-2-((1-(1H-tetrazol-1-yl)propan-2-yl)oxy)-4-(2-((1-(1-(tetrahydro-2H-pyran-4-yl)piperidin-4-yl)-3-(2,2,2-trifluoroethoxy)-1H-pyrazol-4-yl)amino)pyrimidin-5-yl)benzonitrile] and `C[C@@H](Cn1cnnn1)Oc1cc(-c2cnc(Nc3cn(C4CCN(C5CC5)CC4)nc3OCC(F)(F)F)nc2)ccc1Cl` [Example 794, (S)-5-(3-((1-(1H-tetrazol-1-yl)propan-2-yl)oxy)-4-chlorophenyl)-N-(1-(1-cyclopropylpiperidin-4-yl)-3-(2,2,2-trifluoroethoxy)-1H-pyrazol-4-yl)pyrimidin-2-amine] cannot be ordered by IC50: less than 0.01 µM for the first, less than 0.01 µM for the second.

`C[C@@H](Cn1cnnn1)Oc1cc(-c2cnc(Nc3cn(C4CCNCC4)nc3OCC(F)F)nc2)ccc1Cl` [Example 791, (S)-5-(3-((1-(1H-tetrazol-1-yl)propan-2-yl)oxy)-4-chlorophenyl)-N-(3-(2,2-difluoroethoxy)-1-(piperidin-4-yl)-1H-pyrazol-4-yl)pyrimidin-2-amine] and `C[C@@H](Cn1cnnn1)Oc1cc(-c2cnc(Nc3cn(C4CCN(C)CC4)nc3OCC(F)F)nc2)ccc1Cl` [Example 793, (S)-5-(3-((1-(1H-tetrazol-1-yl)propan-2-yl)oxy)-4-chlorophenyl)-N-(3-(2,2-difluoroethoxy)-1-(1-methylpiperidin-4-yl)-1H-pyrazol-4-yl)pyrimidin-2-amine] cannot be ordered by IC50: less than 0.01 µM for the first, less than 0.01 µM for the second.

`C[C@@H](Cn1cnnn1)Oc1cc(-c2cnc(Nc3cn(C4CCN(C5CCOCC5)CC4)nc3OCC(F)F)nc2)ccc1Cl` [Example 792, (S)-5-(3-((1-(1H-tetrazol-1-yl)propan-2-yl)oxy)-4-chlorophenyl)-N-(3-(2,2-difluoroethoxy)-1-(1-(tetrahydro-2H-pyran-4-yl)piperidin-4-yl)-1H-pyrazol-4-yl)pyrimidin-2-amine] and `C[C@@H](Cn1cnnn1)Oc1cc(-c2cnc(Nc3cn(C4CCC(=O)CC4)nc3OCC(F)F)nc2)ccc1Cl` [Example 800, (S)-4-(4-((5-(3-((1-(1H-tetrazol-1-yl)propan-2-yl)oxy)-4-chlorophenyl)pyrimidin-2-yl)amino)-3-(2,2-difluoroethoxy)-1H-pyrazol-1-yl)cyclohexan-1-one] cannot be ordered by IC50: less than 0.01 µM for the first, less than 0.01 µM for the second.

`C[C@@H](Cn1cccn1)Oc1cc(-c2cnc(Nc3cn([C@H]4CC[C@H](N5CCOCC5)CC4)nc3OCC(F)(F)F)nc2)ccc1C#N` [Example 798, 2-(((S)-1-(1H-pyrazol-1-yl)propan-2-yl)oxy)-4-(2-((1-(trans-4-morpholinocyclohexyl)-3-(2,2,2-trifluoroethoxy)-1H-pyrazol-4-yl)amino)pyrimidin-5-yl)benzonitrile] and `C[C@@H](Cn1cnnn1)Oc1cc(-c2cnc(Nc3cn([C@H]4CC[C@@H](N5CC(C)(O)C5)CC4)nc3OCC(F)(F)F)nc2)ccc1Cl` [Example 801, 1-(cis-4-(4-((5-(3-(((S)-1-(1H-tetrazol-1-yl)propan-2-yl)oxy)-4-chlorophenyl)pyrimidin-2-yl)amino)-3-(2,2,2-trifluoroethoxy)-1H-pyrazol-1-yl)cyclohexyl)-3-methylazetidin-3-ol] cannot be ordered by IC50: less than 0.01 µM for the first, less than 0.01 µM for the second.

`CC(O)Cn1cc(Nc2ncc(-c3ccc(Cl)c(O[C@@H](C)Cn4cnnn4)c3)cn2)c(OCC(F)(F)F)n1` (stereo partly drawn) [Example 799, 1-(4-((5-(3-(((S)-1-(1H-tetrazol-1-yl)propan-2-yl)oxy)-4-chlorophenyl)pyrimidin-2-yl)amino)-3-(2,2,2-trifluoroethoxy)-1H-pyrazol-1-yl)propan-2-ol] and `C[C@@H](Cn1cnnn1)Oc1cc(-c2cnc(Nc3cn([C@H]4CC[C@H](N5CC(C)(O)C5)CC4)nc3OCC(F)(F)F)nc2)ccc1Cl` [Example 802, 1-(trans-4-(4-((5-(3-(((S)-1-(1H-tetrazol-1-yl)propan-2-yl)oxy)-4-chlorophenyl)pyrimidin-2-yl)amino)-3-(2,2,2-trifluoroethoxy)-1H-pyrazol-1-yl)cyclohexyl)-3-methylazetidin-3-ol] cannot be ordered by IC50: less than 0.01 µM for the first, less than 0.01 µM for the second.

— patent US10543212B2, “Substituted amines for treating cardiac diseases” (Cardurion Pharmaceuticals, LLC, priority 2017, dated 2020)
